Structures can show the parent of a compound that is named as a salt.
Target: T1, human SPNS2 (Homo sapiens, UniProt Q8IVW8)
T1 construct: expressed in transfected cells; host or cells: Saccharomyces cerevisiae strain with forced expression of a mammalian SphK and human SPNS2
T1 sequence (Q8IVW8 1-549): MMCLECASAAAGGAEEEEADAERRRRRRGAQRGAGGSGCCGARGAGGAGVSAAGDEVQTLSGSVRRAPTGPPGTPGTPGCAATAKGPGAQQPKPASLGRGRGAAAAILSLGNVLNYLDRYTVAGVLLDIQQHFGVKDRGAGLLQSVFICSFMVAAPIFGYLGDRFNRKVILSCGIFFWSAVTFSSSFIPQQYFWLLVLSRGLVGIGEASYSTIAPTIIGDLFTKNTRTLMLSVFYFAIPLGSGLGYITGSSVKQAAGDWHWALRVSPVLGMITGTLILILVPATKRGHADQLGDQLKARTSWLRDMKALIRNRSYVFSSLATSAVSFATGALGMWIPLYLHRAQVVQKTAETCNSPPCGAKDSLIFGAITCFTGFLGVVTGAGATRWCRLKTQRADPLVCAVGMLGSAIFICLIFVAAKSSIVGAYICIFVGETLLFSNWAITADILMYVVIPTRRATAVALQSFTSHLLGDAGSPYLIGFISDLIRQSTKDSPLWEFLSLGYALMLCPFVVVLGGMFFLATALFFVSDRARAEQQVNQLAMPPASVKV
Assay: S1P transporter assay: growth of S. cerevisiae strain with forced expression of a mammalian SphK and human SPNS2
Assay type: cell-based
Conditions: in vitro inhibition of SPNS2; growth of S. cerevisiae strain expressing mammalian SphK and human SPNS2; compounds as their pharmaceutical salts
Source text: Transporter assays are vectorial and, therefore, require measurement of the transported analyte in different compartments. The assay of S1P transporters is problematic because S1P is exported, but not imported, by SPNS2, which obviates measuring uptake of mass- or radio-labeled S1P into transporter-expressing cells.
To assay for SPNS2 inhibitor hits, we took advantage of the growth inhibitory effects of excessive levels of phosphorylated Long Chain Base (phospho-LCB) levels on the budding yeast, S. cerevisiae (Kharel Y, et al. Saccharomyces cerevisiae as a platform for assessing sphingolipid lipid kinase inhibitors. PLoS One 13, e0192179 (2018) PMC5908134). Yeast lack the desaturase that converts dihydroceramide to ceramide and, therefore, have neither sphingosine nor S1P. Rather, yeast have the reduced form, dihydrosphingosine, and the 4-hydroxyl analog, phytosphingosine and their respective phosphates. Like all eukaryotes, the yeast synthesizes (via LCB kinases (SphKs)) and degrades (via phospho-LCB lyase and phosphatase) phospho-LCBs, (dhS1P, phytoS1P). Yeast lack phospho-LCB transporters such as SPNS2, which are found only in vertebrates. To assess inhibition of SPNS2 in vitro, we used a strain of S. cerevisiae wherein expression of a mammalian SphK and human SPNS2 were forced. SPNS2 inhibitors decrease the growth of this strain. Table 2 below presents in vitro inhibition data against SPNS2 for exemplary compounds, presented here as their pharmaceutical salts, of the disclosure (A≤2 μM, B>2 μM).

Structure (SMILES)	IC50
CCCCCCCCCc1ccc(-c2noc([C@@H]3CCCNC3)n2)cc1C(F)(F)F [Compound 28d, (R)-3-(4-nonyl-3-(trifluoromethyl)phenyl)-5-(piperidin-3-yl)-1,2,4-oxadiazole hydrochloride]	> 2 µM
CCCCCCCCCCc1ccc(-c2noc([C@@H]3CCCNC3)n2)cc1C(F)(F)F [Compound 28e, (R)-3-(4-decyl-3-(trifluoromethyl)phenyl)-5-(piperidin-3-yl)-1,2,4-oxadiazole hydrochloride]	> 2 µM
CCCCCCCCCCCc1ccc(-c2noc([C@@H]3CCCNC3)n2)cc1C(F)(F)F [Compound 28f, (R)-5-(piperidin-3-yl)-3-(3-(trifluoromethyl)-4-undecylphenyl)-1,2,4-oxadiazole hydrochloride]	> 2 µM
CCCCCCCCCCc1ccc(-c2noc(C[C@@H]3CCNC3)n2)cc1C(F)(F)F [Compound 28g, (S)-3-(4-decyl-3-(trifluoromethyl)phenyl)-5-(pyrrolidin-3-ylmethyl)-1,2,4-oxadiazole hydrochloride]	> 2 µM
CCCCCCCCCc1ccc(-c2noc(C3CN(C(=N)N)C3)n2)cc1C(F)(F)F [Compound 30a, 3-(3-(4-nonyl-3-(trifluoromethyl)phenyl)-1,2,4-oxadiazol-5-yl)azetidine-1-carboximidamide hydrochloride]	≤ 2 µM
CCCCCCCCCCc1ccc(-c2noc(C3CN(C(=N)N)C3)n2)cc1C(F)(F)F [Compound 30b, 3-(3-(4-decyl-3-(trifluoromethyl)phenyl)-1,2,4-oxadiazol-5-yl)azetidine-1-carboximidamide hydrochloride]	≤ 2 µM
CCCCCCCCCCCc1ccc(-c2noc(C3CN(C(=N)N)C3)n2)cc1C(F)(F)F [Compound 30c, 3-(3-(3-(trifluoromethyl)-4-undecylphenyl)-1,2,4-oxadiazol-5-yl)azetidine-1-carboximidamide hydrochloride]	> 2 µM
CCCCCCCCCc1ccc(-c2noc([C@@H]3CCCN(C(=N)N)C3)n2)cc1C(F)(F)F [Compound 30d, (R)-3-(3-(4-nonyl-3-(trifluoromethyl)phenyl)-1,2,4-oxadiazol-5-yl)piperidine-1-carboximidamide hydrochloride]	≤ 2 µM
CCCCCCCCCCc1ccc(-c2noc([C@@H]3CCCN(C(=N)N)C3)n2)cc1C(F)(F)F [Compound 30e, (R)-3-(3-(4-decyl-3-(trifluoromethyl)phenyl)-1,2,4-oxadiazol-5-yl)piperidine-1-carboximidamide hydrochloride]	≤ 2 µM
CCCCCCCCCCCc1ccc(-c2noc([C@@H]3CCCN(C(=N)N)C3)n2)cc1C(F)(F)F [Compound 30f, (R)-3-(3-(3-(trifluoromethyl)-4-undecylphenyl)-1,2,4-oxadiazol-5-yl)piperidine-1-carboximidamide hydrochloride]	> 2 µM
CCCCCCCCCCc1ccc(-c2noc(C[C@@H]3CCN(C(=N)N)C3)n2)cc1C(F)(F)F [Compound 30g, (S)-3-((3-(4-decyl-3-(trifluoromethyl)phenyl)-1,2,4-oxadiazol-5-yl)methyl)pyrrolidine-1-carboximidamide hydrochloride]	> 2 µM
C/C(=N\OCCCCc1ccccc1)c1ccc(-c2noc([C@@H]3CCNC3)n2)cc1 [Compound 38a, (R)-1-(4-(5-(pyrrolidin-3-yl)-1,2,4-oxadiazol-3-yl)phenyl)ethan-1-one O-(4-phenylbutyl) oxime hydrochloride]	≤ 2 µM
CCCCCCCO/N=C(\C)c1ccc(-c2noc([C@@H]3CCNC3)n2)cc1 [Compound 38i, hydrochloride]	> 2 µM
CCCCCCCCCO/N=C(\C)c1ccc(-c2noc([C@@H]3CCNC3)n2)cc1 [Compound 38j, hydrochloride]	> 2 µM
CCCCCO/N=C(\C)c1ccc(-c2noc([C@@H]3CCNC3)n2)cc1 [Compound 38l, (R)-1-(4-(5-(pyrrolidin-3-yl)-1,2,4-oxadiazol-3-yl)phenyl)ethan-1-one O-pentyl oxime hydrochloride]	> 2 µM
CCCCNC(=O)c1ccc(-c2noc([C@@H]3CCNC3)n2)cc1 [Compound 38o, (R)—N-butyl-4-(5-(pyrrolidin-3-yl)-1,2,4-oxadiazol-3-yl)benzamide hydrochloride]	> 2 µM
CCCCCCCCNC(=O)c1ccc(-c2noc([C@@H]3CCNC3)n2)cc1 [Compound 38p, (R)—N-octyl-4-(5-(pyrrolidin-3-yl)-1,2,4-oxadiazol-3-yl)benzamide hydrochloride]	> 2 µM
C/C(=N\OCCCCc1ccccc1)c1ccc(-c2noc([C@@H]3CCN(C(=N)N)C3)n2)cc1 [Compound 40a, (R)-3-(3-(4-(1-((4-phenylbutoxy)imino)ethyl)phenyl)-1,2,4-oxadiazol-5-yl)pyrrolidine-1-carboximidamide hydrochloride]	≤ 2 µM

Next, values leading:

IC50	Structure (SMILES)
≤ 2 µM	C/C(=N\OCc1cc(C(F)(F)F)cc(C(F)(F)F)c1)c1ccc(-c2noc([C@@H]3CCNC3)n2)cc1 [Compound 38b, (R)-1-(4-(5-(pyrrolidin-3-yl)-1,2,4-oxadiazol-3-yl)phenyl)ethan-1-one O-(3,5-bis(trifluoromethyl)benzyl) oxime hydrochloride]
> 2 µM	C/C(=N\OCc1ccc(C(F)(F)F)cc1)c1ccc(-c2noc([C@@H]3CCNC3)n2)cc1 [Compound 38c, (R)-1-(4-(5-(pyrrolidin-3-yl)-1,2,4-oxadiazol-3-yl)phenyl)ethan-1-one O-(4-(trifluoromethyl)benzyl) oxime hydrochloride]
> 2 µM	C/C(=N\OCc1ccc(-c2ccccc2)cc1)c1ccc(-c2noc([C@@H]3CCNC3)n2)cc1 [Compound 38d, (R)-1-(4-(5-(pyrrolidin-3-yl)-1,2,4-oxadiazol-3-yl)phenyl)ethan-1-one O-([1,1′-biphenyl]-4-ylmethyl) oxime hydrochloride]
> 2 µM	C/C(=N\OCc1ccccc1)c1ccc(-c2noc([C@@H]3CCNC3)n2)cc1 [Compound 38g, (R)-1-(4-(5-(pyrrolidin-3-yl)-1,2,4-oxadiazol-3-yl)phenyl)ethan-1-one O-benzyl oxime hydrochloride]
> 2 µM	C/C(=N\OCc1ccc2c(c1)C(C)(C)CCC2(C)C)c1ccc(-c2noc([C@@H]3CCNC3)n2)cc1 [Compound 38h, (R)-1-(4-(5-(pyrrolidin-3-yl)-1,2,4-oxadiazol-3-yl)phenyl)ethan-1-one O-((5,5,8,8-tetramethyl-5,6,7,8-tetrahydronaphthalen-2-yl)methyl) oxime hydrochloride]
≤ 2 µM	C/C(=N\OCc1ccc(C(C)(C)C)cc1)c1ccc(-c2noc([C@@H]3CCNC3)n2)cc1 [Compound 38k, (R,E)-1-(4-(5-(pyrrolidin-3-yl)-1,2,4-oxadiazol-3-yl)phenyl)ethan-1-one O-(4-(tert-butyl)benzyl) oxime hydrochlorid]
≤ 2 µM	C/C(=N\OCc1ccc(Br)cc1)c1ccc(-c2noc([C@@H]3CCNC3)n2)cc1 [Compound 38n, (R)-1-(4-(5-(pyrrolidin-3-yl)-1,2,4-oxadiazol-3-yl)phenyl)ethan-1-one O-(4-bromobenzyl) oxime hydrochloride]
≤ 2 µM	C/C(=N\OCc1cc(C(F)(F)F)cc(C(F)(F)F)c1)c1ccc(-c2noc([C@@H]3CCN(C(=N)N)C3)n2)cc1 [Compound 40b, (R)-3-(3-(4-(1-(((3,5-bis(trifluoromethyl)benzyl)oxy)imino)ethyl)phenyl)-1,2,4-oxadiazol-5-yl)pyrrolidine-1-carboximidamide hydrochloride]
> 2 µM	C/C(=N\OCc1ccc(C(F)(F)F)cc1)c1ccc(-c2noc([C@@H]3CCN(C(=N)N)C3)n2)cc1 [Compound 40c, (R)-3-(3-(4-(1-(((4-(trifluoromethyl)benzyl)oxy)imino)ethyl)phenyl)-1,2,4-oxadiazol-5-yl)pyrrolidine-1-carboximidamide hydrochloride]
≤ 2 µM	C/C(=N\OCc1ccc(-c2ccccc2)cc1)c1ccc(-c2noc([C@@H]3CCN(C(=N)N)C3)n2)cc1 [Compound 40d, (R)-3-(3-(4-(1-(([1,1′-biphenyl]-4-ylmethoxy)imino)ethyl)phenyl)-1,2,4-oxadiazol-5-yl)pyrrolidine-1-carboximidamide hydrochloride]

Reference: patent US12590083B2, “Inhibitors of spinster homolog 2 (SPNS2) for use in therapy” (University of Virginia Patent Foundation, priority 2019, dated 2026)
